Series [1] has as its target T1, Recombinant rhinovirus 3C protease, serotype 14 (Human rhinovirus 14, UniProt P03303).
T1 construct: Recombinant rhinovirus 3C proteases; made in house
The series can be described thus: Inhibition of rhinovirus 3C protease (FRET assay, kobs/[I]), serotype 14. The format is biochemical. The conditions noted are these: pH 7.6; HRV-14; read-out: kobs/[I] (3C protease inhibition activity). The method in brief: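 kobs/[I] values came from progress curves of reactions started by adding 50-100 nM protease to buffer (50 mM tris pH 7.6, 1 mM EDTA, 2% DMSO) containing compound and ~1 μM quenched DABCYL-EDANS substrate. Rising EDANS fluorescence reported cleavage.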

The test system of the next series is HRV-14. The series can be described thus: Antirhinoviral H1-HeLa cell culture assay (XTT cell protection, EC50), HRV-14. The conditions noted are these: HRV-14, read-out: EC50. The format is cell-based, human rhinovirus (HRV) serotype-14 in H1-HeLa cells. The method in brief: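 XTT dye reduction (450/650 nm) measured survival of H1-HeLa cells two days after HRV-14 infection at m.o.i. 0.13 in the presence of compound, giving EC50. The therapeutic index is CC50 divided by EC50.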
(Tetrazolium dyes change colour on reduction, which living cells bring about.)

The test system of a further series is MRC-5 cells. The series can be described thus: Cytotoxicity (CC50) in uninfected MRC-5 cells, XTT dye reduction. The class given is cell-based, human. Here is the method:
(§1) Echovirus type 11 (ECHO 11) was purchased from ATCC (Rockville, Md.). Virus stocks were propagated and antiviral assays were performed in MRC-5 cells (ATCC). Cells were grown in minimal essential medium with 10% fetal bovine serum (Life Technologies, Gaithersburg, Md.). The ability of the compounds of this invention to protect cells against ECHO 11 infection was measured by the XTT dye reduction method (Weislow et al., J. Natl. Cancer Inst. (1989), vol. 81, 577-586). MRC-5 cells were infected with ECHO 11 at an m.o.i. of 0.003 or 0.004, respectively, or mock-infected with medium only. Infected or uninfected cells were added at 1×10^4 cells per well and incubated with appropriate concentrations of compound. Four days later, XTT/PMS was added to test plates, and the amount of formazan produced was quantified spectrophotometrically at 450/650 nm. […] The therapeutic index (TI) was calculated by dividing the CC50 by the EC50. Activity of the compounds against enterovirus type 70 (EV 70) may be measured by the same assay as described above in this section. Enterovirus type 70 (EV 70) may be obtained from the American Type Culture Collection ATCC (Rockville, Md.).

Assay in series [2]: as above
The class given is cell-based, human. The following applies: human. Here is the method: as §1

For series [3], the system named is Echovirus type 11 (ECHO 11). The series can be described thus: Anti-echoviral cell culture assay (XTT, EC50), ECHO 11. The class given is cell-based, echovirus 11 in MRC-5 cells. The following applies: Enterovirus B. Here is the method:
(§2) Anti-Echoviral and Anti-Enteroviral Cell Culture Assays
as §1

Series [4] has as its system enterovirus type 70 (EV 70). Nature of the series: Anti-enteroviral cell culture assay (XTT, EC50), EV 70. The format is cell-based, enterovirus 70 in MRC-5 cells. The following applies: Enterovirus D. Here is the method:
as §2, §1

Series [5] has as its system Coxsackievirus type A-21 (CAV-21). The series can be described thus: Anticoxsackieviral cell culture assay (XTT, EC50), CAV-21. The class given is cell-based, coxsackievirus A-21 in H1-HeLa cells. On the procedure:
(§3) Anticoxsackieviral Cell Culture Assay:
(§4) Coxsackievirus types A-21 (CAV-21) and B3 (CVB3) were purchased from American Type Culture Collection (ATCC, Rockville, Md.). Virus stocks were propagated and antiviral assays were performed in H1-HeLa cells (ATCC). Cells were grown in minimal essential medium with 10% fetal bovine serum (Life Technologies, Gaithersburg, Md.). The ability of the compounds of this invention to protect cells against either CAV-21 or CVB3 infection was measured by the XTT dye reduction method. This method is described in Weislow et al., J. Natl. Cancer Inst. (1989), vol. 81, 577-586. H1-HeLa cells were infected with CAV-21 or CVB3 at a multiplicity of infection (m.o.i.) of 0.025 or 0.075, respectively, or mock-infected with medium only. H1-HeLa cells were plated at 4×10^4 cells per well in a 96-well plate and incubated with appropriate concentrations of the test compound. One day (CVB3) or two days (CAV-21) later, XTT/PMS was added to test plates and the amount of formazan produced was quantified spectrophotometrically at 450/650 nm. […] The therapeutic index (TI) was calculated by dividing the CC50 by the EC50.

For series [6], the system named is Coxsackievirus type B3 (CVB3). Nature of the series: Anticoxsackieviral cell culture assay (XTT, EC50), CVB3. The format is cell-based, coxsackievirus B3 in H1-HeLa cells. Here is the method: as §3, §4
Series [7] can be described thus: Cytotoxicity (CC50) in mock-infected H1-HeLa cells, XTT dye reduction. The conditions noted are these: human. The format is cell-based, human. The method in brief: (§5)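 XTT dye reduction (formazan, 450/650 nm) in H1-HeLa cells, mock-infected, gave CC50.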
The test system of a further series is H1-HeLa cells. The description is as above. The class given is cell-based, human. The method in brief:
as §5

The mark [8] stands for this setting: MRC-5 cells, uninfected (mock-infected), line of ECHO-11.
The mark [9] stands for this setting: Coxsackievirus, CAV-21, read-out: EC50.
The mark [10] stands for this setting: H1-HeLa cells, mock-infected, line of HRV-14.
Where [11] appears, read: H1-HeLa cells, uninfected (mock-infected), line of CAV-21.
[12] abbreviates: H1-HeLa cells, uninfected (mock-infected), line of CVB3.
Setting [13] is: uninfected (mock-infected) MRC-5 cells, ECHO-11 (EV-11) row.
[14] abbreviates: CVB3, H1-HeLa cells, read-out: EC50.
Where [15] appears, read: H1-HeLa cells, mock-infected, HRV-14.
Setting [16] is: mock-infected (uninfected) H1-HeLa cells, CAV-21.
Where [17] appears, read: mock-infected (uninfected) H1-HeLa cells, CVB3.

By EC50 is commonly meant the midpoint of the concentration-response curve. For orientation: CC50 means the concentration giving 50% cytotoxicity. Higher therefore signals lower toxicity to the cells.

Read-outs that look alike come from different tables or passages of the source.

T1 sequence (P03303 1538-1719): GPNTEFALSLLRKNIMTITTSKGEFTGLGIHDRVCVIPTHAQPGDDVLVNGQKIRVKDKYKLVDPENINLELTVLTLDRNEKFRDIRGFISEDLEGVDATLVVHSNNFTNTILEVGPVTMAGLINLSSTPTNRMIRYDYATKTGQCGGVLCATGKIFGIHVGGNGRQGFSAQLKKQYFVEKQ

On to `CCOC(=O)/C=C/[C@H](CCC(N)=O)NC(=O)[C@H](Cc1ccccc1)n1cccc(NC(=O)OCc2ccccc2)c1=O` [Compound 1, trans-(2′S,4S)-4-[2′-(3″-Benzyloxycarbonylamino-2″-oxo-2″H-pyridin-1″-yl)-3′-phenylpropionylamino]-6-carbamoylhex-2-enoic Acid Ethyl Ester], for which, in series [1], the kinact/KI is 114000 M⁻¹ s⁻¹. Also, the EC50 in the series with HRV-14 (Rhinovirus B, HRV14, H1-HeLa) worked out at 33 nM; in series [3] (ECHO-11, read-out: EC50), 160 nM; in series [4] (ENT-70) it was 12 nM; in series [5] (setting [9]) it was 1480 nM; in series [6] (CVB3, read-out: EC50), 539 nM. The same compound came in with a 50% cytotoxic concentration (CC50) with MRC-5 cells (line of ENT-70) of more than 10000 nM. In addition, the CC50 at 4 days in [2] (setting [8]) is more than 10000 nM. Besides, the CC50 at 2 days in series [7] (setting [10]) is 50100 nM; in [7] (setting [11]), more than 10000 nM. Also, in series [7] (setting [12]), the CC50 at 1 day is more than 10000 nM.
Take `CCOC(=O)/C=C\[C@H](CCC(N)=O)NC(=O)[C@H](Cc1ccccc1)n1cccc(NC(=O)c2cc(C)on2)c1=O` [Compound 5, trans-(2′S,4S)-6-Carbamoyl-4-(2′-{3″-[(5′″-methylisoxazole-3′″-carbonyl)amino]-2″-oxo-2″H-pyridin-1″-yl}-3′-phenylpropionylamino)hex-2-enoic Acid Ethyl Ester]: in series [1], the kinact/KI came to 329000 M⁻¹ s⁻¹. Further, the EC50 with HRV-14 (Rhinovirus B, HRV14, H1-HeLa) was 16 nM; in series [3] (ECHO-11, read-out: EC50) it was 54 nM; in [4] (ENT-70), 18 nM; in series [5] (setting [9]) it was 1390 nM; in [6] (CVB3, read-out: EC50) it was 577 nM. In the series on MRC-5 cells (line of ENT-70), the CC50 is more than 10000 nM. Besides, the CC50 at 4 days in series [2] (setting [8]) is more than 10000 nM. The cytotoxic concentration (CC50) at 2 days in series [7] (setting [10]) and in [7] (setting [11]) was more than 10000 nM throughout. The CC50 at 1 day in series [7] (setting [12]) is more than 10000 nM.
As for `CCOC(=O)/C=C/[C@H](CCC(N)=O)NC(=O)[C@H](Cc1ccccc1)n1cccc(NC(=O)C2CCCC2)c1=O` [Compound 6, trans-(2′S,4S)-6-Carbamoyl-4-{2′-[3″-cyclopentanecarbonylamino-2″-oxo-2″H-pyridin-1″-yl]-3′-phenylpropionylamino}hex-2-enoic Acid Ethyl Ester], the kinact/KI in series [1] was found to be 37400 M⁻¹ s⁻¹. The half-maximal effective concentration (EC50) in the series on HRV-14 (Rhinovirus B, HRV14, H1-HeLa) is 34 nM; in series [3] (ECHO-11, read-out: EC50), 346 nM; in series [4] (ENT-70), 61 nM; in series [5] (setting [9]), 4680 nM; in [6] (CVB3, read-out: EC50), 2500 nM. In the series on MRC-5 cells (line of ENT-70), this compound returned a CC50 of more than 10000 nM. Besides, in series [2] (setting [8]), the CC50 at 4 days is more than 10000 nM. The CC50 at 2 days in [7] (setting [10]) and in [7] (setting [11]) was more than 10000 nM throughout. The CC50 at 1 day in series [7] (setting [12]) is more than 10000 nM.
With `CCOC(=O)c1ccc(OCCC2CCN(c3ccc(C)nn3)CC2)cc1` [Pirodavir, reference compound], the EC50 with HRV-14 (Rhinovirus B, HRV14, H1-HeLa) was 30 nM; in series [3] (MRC5, ECHO-11 (also printed EV-11), MRC-5 cells, read-out: EC50) it was 3700 nM; in [4] (MRC5, ENT-70, MRC-5 cells) it was 60 nM; in [5] (Coxsackievirus, CAV-21, H1-HeLa cells, read-out: EC50) it was more than 100000 nM; in series [6] (setting [14]), more than 100000 nM. This compound also had a CC50 with MRC-5 cells (ENT-70 row) of more than 10000 nM. For the same compound, the CC50 at 4 days in series [2] (setting [13]) was more than 10000 nM. In addition, the CC50 at 2 days in series [7] (setting [15]) is more than 10000 nM; in series [7] (setting [16]), more than 100000 nM. Also, the CC50 at 1 day in series [7] (setting [17]) was more than 100000 nM.
On to `Cc1cc(CCCOc2c(C)cc(-c3noc(C(F)(F)F)n3)cc2C)on1` [Pleconaril, reference compound], for which the EC50 was 10 nM in the series with HRV-14 (Rhinovirus B, HRV14, H1-HeLa); 160 nM in series [3] (MRC5); 90 nM in series [5] (Coxsackievirus, H1-HeLa); more than 10000 nM in [6] (H1-HeLa). In addition, in series [2] (setting [13]), the CC50 at 4 days was more than 10000 nM. Moreover, the CC50 at 2 days in series [7] (setting [15]) and in series [7] (setting [16]) was more than 10000 nM in each case. Besides, the CC50 at 1 day in series [7] (setting [17]) is more than 10000 nM.
Consider `Cc1cc(CCCCCOc2c(Cl)cc(C3=NCCO3)cc2Cl)on1` [WIN 54954, reference compound], for which the EC50 is 2130 nM in the series on HRV-14; more than 100000 nM in series [5] (CAV-21, H1-HeLa cells, read-out: EC50); more than 100000 nM in [6] (setting [14]). The CC50 is more than 100000 nM in the series on H1-HeLa cells (CAV-21), more than 100000 nM in the series with H1-HeLa cells (CVB3) and more than 63000 nM with H1-HeLa cells (HRV-14).

Source of the values: US6514997B2, “Antipicornaviral compounds and compositions, their pharmaceutical uses, and materials for their synthesis” (Agouron Pharmaceuticals, Inc., priority 1999, dated 2003).
